Test results as given in patent publication US4464354A, “(3,4-c)-Pyrido psoralens, process of preparation, application in cosmetology and therapeutics, and cosmetological and pharmaceutical composition with them” (Institut National de la Sante et de la Recherche Medicale, priority 1982, dated 1984).
Entries after “also recorded” stand apart in the source; their conditions may differ. Read-outs that look alike come from different tables or passages of the source.

Legend:
[1] = system: Saccharomyces cerevisiae yeast; assay: induction of lethal effects in yeast with 365 nm irradiation (UVA); type: cell-based; conditions: for photodynamic activity (oxygen dependent) on induction of lethal damages: yeast
Experimental: (§1) This photobiological activity has in effect been defined by the induction of lethal effects, the induction of "small colony" cytoplasmic mutations (damage in the mitochondrial DNA) and the induction of nuclear mutations (reverse and forward). The experiments were conducted in the customary manner in conformity with the following references:
Thus, the dose of UVA must be between 2.5 and 5 times weaker in the case of compounds 1a and 1b than in the case of 8-MOP to attain the same survival rate.

[2] = system: psoriasis; conditions: human, in vivo; cited from earlier work
[3] = mice, after exposure to light in the near ultraviolet range around 365 nm; cited from earlier work
[4] = system: normal human skin; assay: erythema test on normal human skin (forearm); type: in vivo; conditions: for erythematogenicity (conclusion): in vivo
Experimental: The clinical and therapeutic activity of compounds 1a and 1b has been also measured on human skin. 10 mg of compounds 1a and 1b were diluted in 2 g of a purified lanolin commercially available under the name ROC hydrocerine which was made liquid by heating to 60° C. This local preparation was first tested on normal human skin (of the forearm). An amount of 10 micrograms/cm2 of products 1a and 1b was applied to a circular cutaneous surface 3 cm in diameter. The two products were left on the skin for 2 hours to insure a sufficient cutaneous penetration. […] The same experiment was repeated a second time with irradiation of 20 J/cm2 through a glass plate in order to filter out all the ultraviolet B radiation. […] This erythema, slightly apparent, continued for 18 days. […] The […] result of the reflective photoplethysmograph were totally identical for products 1a and 1b. […] The […] only appeared in doses of irradiation where are twice that customarily used in a therapeutic treatment.

[5] = system: psoriatic plaque; assay: therapeutic test comparing 8-methoxypsoralen and product 1b; type: in vivo, human; conditions: 10^-2 M; for deterioration after end of treatment: one patient without further treatment
Source text: The concentrations of 8-MOP and product 1b were 10^-2 M in the same excipient as that used in the previous therapeutic test. Both preparations were applied on two rounded zones 3 cm in diameter, located on the same psoriatic plaque and were irradiated according to the same procedure of gradually increasing ultraviolet irradiation until a maximum of 10 J/cm2 per treatment.

[6] = system: DNA; conditions: background statement; cited from earlier work
[7] = system: DNA of cells of the wild type; assay: direct biochemical verification of cross-linking in DNA of cells treated and irradiated at 365 nm; type: cell-based, yeast; conditions: for form of DNA after renaturation (cross-links): 10^-5 M, 365 nm, two doses (30% and 5% survival rate)
Source text: Indeed, DNA of cells of the wild type were extracted immediately after treatment with products 1a, 1b at a concentration of 10^-5 M and irradiation with two doses of radiation at 365 nm (30% and 5% survival rate). […] If the DNA contains cross-links it renatures itself and is found in the double chain form separable by gradient density from single chain DNA.

[8] = system: V79 chinese hamster cells; assay: antiproliferatory effect: inhibition of colony formation of V79 cells; type: cell-based; conditions: 5×10^-6 M
Experimental: The photobiological activity of the two monofunctional componds 1a and 1b have been studied in mammalian cells in vitro in order to determine their antiproliferatory effect.
A diploid strain of V79 chinese hamster cells were used.
The action of the compounds on cell survival (i.e. the antiproliferatory effect) was determined by measuring their power to inhibit the capacity of cells to form colonies. The technique used is that described by C.

[9] = background statement, cited from earlier work
[10] = system: DNA; assay: photoaffinity for DNA in vivo; type: cell-based, yeast
[11] = system: DNA; assay: formation of cross-links in DNA (general statements); type: biochemical; conditions: from induction of cytoplasmic and nuclear mutations
[12] = system: haploid strain of Saccharomyces cerevisiae yeast; assay: induction of nuclear mutations: His+ reversions; type: cell-based; conditions: 5×10^-6 M, same survivor rate
Experimental: as §1
The induction of nuclear mutations (reversions and "forward" mutations) has been determined according to procedures described in the above-mentioned articles.

[13] = system: mitochondrial DNA; assay: induction of "small colony" cytoplasmic mutations; type: cell-based, Saccharomyces cerevisiae; conditions: in 10% of the survivors
Experimental: as §1
If the induction of cytoplasmic mutations is considered as a function of the survivors, the compounds 1a and 1b which are monofunctional derivatives of psoralen, show in 10% of the survivors a rate of induction of cytoplasmic mutation greater than 50%.

[14] = system: normal skin; assay: pigmentogenic properties on normal skin; type: in vivo, human; conditions: 0.5%
Source text: The pigmentogenic properties of products 1a and 1b have been tested on normal skin at a concentration of 0.5%.

[15] = spectroscopic absorption properties; type: physicochemical; conditions: compared with psoralen
Source text: Compounds 1a and 1b have similar spectroscopic properties which differ markedly with respect to those of psoralen.

[16] = system: yeast mutant pso2; assay: sensitivity of yeast mutant pso2 versus wild type to photo-addition
[17] = system: synthesis of DNA; assay: photosensitizer effect on DNA synthesis in human fibroblasts; type: cell-based; conditions: UVA 365 nm
Source text: (§2) (F. Bordin, F. Baccichetti and L. Musajo, Experientia 28, 148 (1972)).
(§3) The cells cultivated in Petri dishes having a minimum Eagle medium with 10% embryonic calf serum were marked by precursors which were specific to the exponential phase of growth. The rates of synthesis were estimated by measuring the incorporation of the radioactive precursors in the acid-precipitable material (see S. Nocentini, Biochim. Biophys., Acta 521, 160 (1978)).

[18] = system: psoriatic plaque; assay: therapeutic test on psoriatic plaque, products 1a and 1b; type: in vivo, human
Experimental: 10 mg of compounds 1a and 1b were diluted in 2 g of a purified lanolin commercially available under the name ROC hydrocerine which was made liquid by heating to 60° C. Products 1a and 1b have also been tested in the same excipient on a high inflammatory psoriatic plaque. These two products were applied to surfaces having a 3 cm diameter. On a third surface the excipient alone was applied. […] The products and the lanolin alone were applied 2 hours before irradiation. […] This whitening was practically as fast in the zones treated with products 1a and 1b. The zone treated with lanolin alone remained unchanged.

[19] = mutagenicity (general statements)
[20] = system: synthesis of RNA; assay: photosensitizer effect on RNA synthesis in human fibroblasts; type: cell-based; conditions: UVA 365 nm
Source text: as §2, §3

[21] = system: Saccharomyces cerevisiae yeast; assay: induction of forward mutations (resistance to canavanine); type: cell-based
Experimental: as §1, with “references: […]” for “references:”

[22] = 30 micrograms/cm2, by the tenth treatment
[23] = 30 micrograms/cm2, from the fourth treatment
[24] = 10 micrograms/cm2, UVA 20 J/cm2

Cc1cc2c(ccc3c(C)cc(=O)oc32)o1 [4,5'-dimethylangelicine, reference compound]
photodynamic activity (oxygen dependent) on induction of lethal damages [1]: comparable

CCOC(=O)c1cc2cc3ccoc3cc2oc1=O [3-carbethoxypsoralen, reference compound]
therapeutic activity in patients having psoriasis [2]: having a therapeutic activity in respect to patients having psoriasis | photodynamic activity (oxygen dependent) on induction of lethal damages [1]: different | carcinogenicity [3]: completely safe from this point of view | erythematogenicity (conclusion) [4]: is not

COc1c2occc2cc2ccc(=O)oc12 [8-methoxypsoralen, reference compound]
deterioration after end of treatment [5]: rapid deterioration | photodynamic activity (oxygen dependent) on induction of lethal damages [1]: comparable | capability of forming cross-links in DNA [6]: capable of forming cross-links in the DNA | form of DNA after renaturation (cross-links) [7]: cross-linked double strand DNA | LD10 (dose which leaves 10% survive) ([8]; UVA): 3800 J/cm2 | mutagenic activity and carcinogenesis in animals [9]: high mutagenic activity and carcinogenesis in animals

Cc1c2occc2cc2c1oc(=O)c1cnccc12 [Compound 1b, Methyl-7-pyrido (3,4-c) furo (3,2-g) coumarin]
deterioration after end of treatment [5]: practically no deterioration | antipsoriatic effectiveness compared with 8-methoxypsoralen ([5]; three patients, up to 10 J/cm2 per treatment): more effective than 8-methoxypsoralen | photoaffinity for DNA in vivo compared with 3-CPs [10]: makedly much high than that of monofunctional furocoumarin 3-CPs | photoaffinity for DNA in vivo relative to 8-MOP [10]: ~20 times | photoaffinity in respect to DNA compared with 8-MOP (conclusion) [10]: markedly greater than that of 8-MOP | formation of cross-links in the DNA (conclusion) [11]: incapable of forming cross-links in the DNA | His+ reversions rate compared with 3-CPs [12]: less than that observed after the treatment with 3-CPs | His+ reversions rate compared with 8-MOP and 4,5',8-TMeP [12]: very much less than that observed after treatment with the bifunctional agents 8-MOP and 4,5', 8-TMeP | rate of induction of cytoplasmic mutation [13]: greater than 50% | pigmentogenic properties, 1b versus 1a [14]: superior to those of product 1a; also recorded: more pigmentogenic than product 1a | pigmentation of normal skin ([14]; three normal patients, total UVA doses of 140 J/cm2): Visible pigmentation was observed on three normal patients tested with product 1b in all three cases | coefficient of molecular absorption at 365 nm [15]: notably a higher coefficient of molecular absorption at 365 nm | photoreactivity compared with 4,5',8-trimethylpsoralen (conclusion) [1]: close to that of 4,5'-8-trimethylpsoralen | activity on cell survival relative to 8-MOP ([1]; 5×10^-6 M, survival curves): 5 times | activity compared with 4,5',8-trimethylpsoralen ([1]; equimolar 5×10^-6 M): activity close to that of 4,5', 8-trimethylpsoralen | photodynamic activity (oxygen dependent) on induction of lethal damages [1]: do not exert on the yeast photodynamic activity | photoreactivity on yeast strains [16]: very photoreactive | sensitivity of pso2 mutant compared with wild type ([16]; photo-addition): same sensitivity as the wild type | inhibition capacity (DNA) compared with 3-CPs [17]: much more than 3-CPs | inhibition capacity (DNA) compared with 8-MOP [17]: slightly more powerful than 8-MOP | form of DNA after renaturation (cross-links) [7]: remains in single chain form after renaturation | functional type (mono/bifunctional) ([7]; pso2 mutant and direct examination of DNA): mono functional type | LD10 (dose which leaves 10% survive) ([8]; UVA): 540 J/cm2 | considerable photosensitivity in V79 cells ([8]; UVA): considerable photosensitivity | relative antiproliferatory effect ([8]; UVA): markedly more effective than compound 1a; also recorded: compared to 8-MOP, a higher antiproliferatory effect; also recorded: comparable to that of bifunctional furocoumarins | diminution of cell survival in absence of radiation ([8]; no radiation): no diminution of cell survival | antipsoriatic action, third patient ([18]; 30 μg/cm2 two hours before UVA): complete whitening of the psoriasis | antipsoriatic action, two of three patients ([18]; 30 μg/cm2 two hours before UVA): moderately better than product 1a | pigmentogenic effect, two of three patients ([18]; 30 μg/cm2 two hours before UVA): more pigmentogenic | antipsoriatic action of product 1b versus 1a (overall) ([18]; 10 treatments of PUVA, total dose 50 J/cm2): antipsoriatic action superior to that of product 1a | erythema or secondary effect during treatments ([18]; 30 micrograms/cm2): no erythema or secondary effect was observed | hyperpigmentation ([18]; 30 micrograms/cm2): hyperpigmentation was found in the two zones, in particular the one treated with product 1b | total UVA dose to complete whitening [18, 22]: 50 J/cm2 | whitening of treated zones [18, 22]: complete whitening of the zones treated | decrease of squamae [18, 23]: slight decrease of the squamae | reduction of infiltration [18, 23]: tangible reduction of the infiltration | antipsoriatic activity (conclusion) ([18]; applied locally): good antipsoriatic activity; also recorded: best therapeutic results | mutagenicity compared with 3-carbethoxypsoralen (conclusion) [19]: less mutagenic than 3-carbethoxypsoralen | inhibition capacity (RNA) compared with 3-CPs [20]: much more than 3-CPs | inhibition capacity (RNA) compared with 8-MOP [20]: slightly more powerful than 8-MOP | forward mutations as a function of surviving fractions compared with 3-CPs, 8-MOP and 4,5',8-TMeP [21]: markedly less mutagenic than 3-CPs and the bifunctional compounds 8-MOP and 4,5', 8-TMeP | forward mutations as a function of UVA doses compared with 3-CPs ([21]; 5×10^-6 M versus 3-CPs at 5×10^-5 M): comparable to those obtained with 3-CPs at 5×10^-5 M | erythema at 5 J/cm2 ([4]; 10 micrograms/cm2, 2 hours before UVA 5 J/cm2): no precocious or delayed erythema was observed | duration of erythema [4, 24]: 18 days | time of appearance of erythema [4, 24]: 72 h | erythema at 20 J/cm2 ([4]; 10 micrograms/cm2, UVA 20 J/cm2 through glass plate): slight erythema | desquamation or local pain ([4]; UVA 20 J/cm2): no desquamation or local pain | systolic pulse of the capillaries at erythematic zones (reflective photoplethysmography) ([4]; UVA 20 J/cm2): doubling of the systolic pulse | erythematogenicity (conclusion) [4]: not erythmatogenic in conditions of irradiation customarily used in human therapy; also recorded: very mildly erythmatogenic

COc1c2ccoc2cc2oc(=O)ccc12 [5-methoxypsoralen]
capability of forming cross-links in DNA [6]: capable of forming cross-links in the DNA | mutagenic activity and carcinogenesis in animals [9]: high mutagenic activity and carcinogenesis in animals | mutagenic activity and carcinogenesis in animals ([9]; listed as 5-methoxy psoralen): mutagenic | carcinogenicity [3]: carcinogenic in mice
